Residues, ends and D or L forms follow the SMILES beside them.
Tests used:
[1] = system: Lymphocytes of healthy volunteers; experiment: Cytotoxicity of peptides, WST-1; assay type: cell-based, human; settings: peptide alone
Protocol: Written informed consent was obtained from all eligible participants prior to entry into the study. Approval for this study was provided by Kaplan Medical Center’s Ethics Committee (Protocol No. ZMS1/2016). Lymphocytes of healthy volunteers were isolated from the peripheral blood by Ficoll-Paque density gradient centrifugation. Cells were incubated in DMEM with different peptide concentrations for 72 h. Then, 100 µl of cells were taken for toxicity testing using a quantitative cell viability test, the WST-1 assay.

HeLa cells = system: HeLa cells; parameters: method as in PMID 20517955; settings: cited from earlier work
SD rats [2] = experiment: 28-day repeated dose toxicity study; assay type: in vivo, rat; settings: slow IV bolus twice weekly for 4 weeks, 4 weeks recovery; male and female SD rats; highest dose tested
Protocol: Four weeks of repeated dosing followed by four weeks of recovery was performed in female and male SD rats, via slow IV bolus of the INS peptide. Eighty rats (40 males and 40 females) were utilized for the main study groups (n = 10 per study group). An additional 40 animals (20 males and 20 females) were used as recovery groups (n = 5 per study group). Group allocation was done without investigator blinding. Study evaluations included: mortality and morbidity, body weight, food consumption, clinical signs, ophthalmological observation, blood collection for hematology, clinical chemistry, coagulation, urine analysis, necropsy, and gross pathology, organ weight, and histopathology. The study was approved by the Institutional Review Board of Tel Aviv Sourasky Medical Center.

CHO-WBL cells = experiment: Chromosomal aberration assay (genotoxicity); assay type: cell-based, Chinese hamster; settings: for % Gaps / % Structural aberration without gaps / Cells with endoreduplication (%) / Cells with polyploidy (%) / Cytotoxicity (%) / % Structural aberrant cells: harvest 22 h; for Cytotoxicity (%): cell growth inhibition relative to negative control; for % Structural aberrant cells: cells with only gaps not included
Protocol: All cells were cultured for 22 h after initiation of INS treatment.

H1975 lung cancer cells = experiment: Cytotoxicity of peptides without lentiviral particles, MTT; assay type: cell-based, human; settings: peptide alone, three times over ten days
Protocol: H1975 lung cancer cells were treated three times over the course of 10 days (on days 2, 4, and 7) with different concentrations of the tested peptides. Following ten days of incubation, cells were analyzed for potential toxicity using a quantitative cell viability test, the MTT assay.

SD rats [3] = experiment: Immunogenicity, anti-peptide antibody ELISA; assay type: in vivo, rat; settings: biweekly administrations over 10 weeks, serum 1:50
Protocol: Animals were fed ad libitum a commercial rodent diet (Teklad Certified Global 18% Protein Diet). Animals had free access to sterilized and acidified drinking water (pH between 2.5 and 3.5). SD rats were randomly allocated to cages and treated twice a week, for ten weeks with INS peptide, at two doses of 1.5 and 7.5 mg/kg. Rat blood was collected before immunization (exposure to the peptide) to serve as a baseline, and after immunization at day 21, 35, 49, and 70/72. The immunogenicity was analyzed by evaluation of anti-peptide antibodies in the sera of SD rats, using a specific developed ELISA test. A 96 well plate was coated overnight with INS labeled with biotin (5 µg/ml) (Thermo Scientific) followed by blocking (3% Milk in PBS) for 1 h at room temperature (RT). Serum samples were diluted at 1:50 and added to the plates for 1 h at RT. After washing with PBST (three times), a donkey anti-rat antibody (Jackson Laboratories, cat. no. 705-035-003) (diluted 1:5000) was added and incubated for 1 h at RT. Then, TMB, diluted 1:2 was added and the reaction was stopped after 10 min with HCL solution. Absorbance was measured by an automated microplate reader (iMARK microplate reader, BioRad) with a wavelength of 450 nm.

[4] = INS 10 µg/mL, +S9, 3 h treatment
[5] = INS 10 µg/mL, −S9, 3 h treatment
[6] = INS 10 µg/mL, −S9, 22 h treatment
[7] = INS 25 µg/mL, +S9, 3 h treatment
[8] = INS 25 µg/mL, −S9, 3 h treatment
[9] = INS 25 µg/mL, −S9, 22 h treatment
[10] = INS 50 µg/mL (precipitate), +S9, 3 h treatment
[11] = INS 50 µg/mL (precipitate), −S9, 3 h treatment
[12] = INS 50 µg/mL (precipitate), −S9, 22 h treatment

CC[C@H](C)[C@H](NC(=O)[C@H](Cc1ccccc1)NC(=O)[C@@H](NC(=O)[C@H](C)NC(=O)[C@H](CCSC)NC(=O)[C@H](CCC(N)=O)NC(=O)[C@@H](NC(=O)[C@H](C)NC(=O)[C@@H](NC(=O)[C@@H](N)Cc1c[nH]c2ccccc12)[C@@H](C)O)C(C)C)C(C)C)C(=O)N[C@@H](Cc1c[nH]cn1)C(=O)N[C@@H](CC(N)=O)C(=O)N[C@@H](Cc1ccccc1)C(=O)N[C@@H](CCCCN)C(=O)N[C@@H](CCCNC(=N)N)C(=O)N[C@@H](CCCCN)C(=O)O [INS] (H-WTAVQMAVFIHNFKRK-OH)
Viability of primary lymphocytes [1]: not affected
Cell permeability (HeLa cells): cell-permeable
Toxicity (HeLa cells): non-toxic
no-observed-adverse-effect level (NOAEL) (SD rats [2]): 7.5 mg/kg
Induction of structural chromosomal aberrations (conclusion) (CHO-WBL cells; 10-50 µg/mL, ±S9, 3 and 22 h): negative
% Gaps (CHO-WBL cells; [4]): 0.3%
% Structural aberration without gaps (CHO-WBL cells; [4]): 1.0%
Cells with endoreduplication (%) (CHO-WBL cells; [4]): 0.0%
Cells with polyploidy (%) (CHO-WBL cells; [4]): 0.0%
Cytotoxicity (%) (CHO-WBL cells; [4]): 5%
% Structural aberrant cells (CHO-WBL cells; [4]): 1.0%
% Gaps (CHO-WBL cells; [5]): 0.7%
% Structural aberration without gaps (CHO-WBL cells; [5]): 1.3%
Cells with endoreduplication (%) (CHO-WBL cells; [5]): 0.0%
Cells with polyploidy (%) (CHO-WBL cells; [5]): 0.0%
Cytotoxicity (%) (CHO-WBL cells; [5]): 4%
% Structural aberrant cells (CHO-WBL cells; [5]): 1.3%
% Gaps (CHO-WBL cells; [6]): 0.7%
% Structural aberration without gaps (CHO-WBL cells; [6]): 1.0%
Cells with endoreduplication (%) (CHO-WBL cells; [6]): 0.0%
Cells with polyploidy (%) (CHO-WBL cells; [6]): 0.0%
Cytotoxicity (%) (CHO-WBL cells; [6]): −1%
% Structural aberrant cells (CHO-WBL cells; [6]): 1.0%
% Gaps (CHO-WBL cells; [7]): 0.3%
% Structural aberration without gaps (CHO-WBL cells; [7]): 1.0%
Cells with endoreduplication (%) (CHO-WBL cells; [7]): 0.3%
Cells with polyploidy (%) (CHO-WBL cells; [7]): 0.0%
Cytotoxicity (%) (CHO-WBL cells; [7]): −1%
% Structural aberrant cells (CHO-WBL cells; [7]): 1.0%
% Gaps (CHO-WBL cells; [8]): 0.3%
% Structural aberration without gaps (CHO-WBL cells; [8]): 1.0%
Cells with endoreduplication (%) (CHO-WBL cells; [8]): 0.3%
Cells with polyploidy (%) (CHO-WBL cells; [8]): 0.0%
Cytotoxicity (%) (CHO-WBL cells; [8]): −10%
% Structural aberrant cells (CHO-WBL cells; [8]): 1.0%
% Gaps (CHO-WBL cells; [9]): 0.0%
% Structural aberration without gaps (CHO-WBL cells; [9]): 1.0%
Cells with endoreduplication (%) (CHO-WBL cells; [9]): 0.0%
Cells with polyploidy (%) (CHO-WBL cells; [9]): 0.0%
Cytotoxicity (%) (CHO-WBL cells; [9]): −3%
% Structural aberrant cells (CHO-WBL cells; [9]): 1.0%
% Gaps (CHO-WBL cells; [10]): 0.3%
% Structural aberration without gaps (CHO-WBL cells; [10]): 1.7%
Cells with endoreduplication (%) (CHO-WBL cells; [10]): 7.3%
Cells with polyploidy (%) (CHO-WBL cells; [10]): 0.0%
Cytotoxicity (%) (CHO-WBL cells; [10]): 46%
% Structural aberrant cells (CHO-WBL cells; [10]): 1.7%
% Gaps (CHO-WBL cells; [11]): 0.7%
% Structural aberration without gaps (CHO-WBL cells; [11]): 1.3%
Cells with endoreduplication (%) (CHO-WBL cells; [11]): 0.0%
Cells with polyploidy (%) (CHO-WBL cells; [11]): 0.0%
Cytotoxicity (%) (CHO-WBL cells; [11]): −7%
% Structural aberrant cells (CHO-WBL cells; [11]): 1.3%
% Gaps (CHO-WBL cells; [12]): 0.3%
% Structural aberration without gaps (CHO-WBL cells; [12]): 1.3%
Cells with endoreduplication (%) (CHO-WBL cells; [12]): 0.0%
Cells with polyploidy (%) (CHO-WBL cells; [12]): 0.0%
Cytotoxicity (%) (CHO-WBL cells; [12]): −1%
% Structural aberrant cells (CHO-WBL cells; [12]): 1.3%
Effect on lung cancer cell viability (H1975 lung cancer cells): no effect
Immunogenicity (anti-peptide antibodies, ELISA; words) (SD rats [3]; dose level 1.5 (mg/kg)): no
Immunogenicity (anti-peptide antibodies, ELISA; words) (SD rats [3]; dose level 7.5 (mg/kg)): very low
